#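 Interpolation was linear, between the two tested concentrations surrounding the appropriate level; five concentrations were tested over 48 hours in 96-well plates. GI50: concentration for 50% inhibition of growth. At the TGI there is no net growth.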
# How the values were obtained:
# Assay in all cases: NCI-60 cell line screen, 48 h
# HCC-2998 colon = system: HCC-2998 colon
# ACHN renal = system: ACHN renal
# NCI-H460 lung = system: NCI-H460 lung
# HL-60(TB) leukemia = system: HL-60(TB) leukemia
# TK-10 renal = system: TK-10 renal
# COLO 205 colon = system: COLO 205 colon
# PC-3 prostate = system: PC-3 prostate
# OVCAR-4 ovarian = system: OVCAR-4 ovarian
# UACC-257 melanoma = system: UACC-257 melanoma
# A549 NSCLC = system: A549 NSCLC
# RXF 393 renal = system: RXF 393 renal
# NCI/ADR-RES ovarian = system: NCI/ADR-RES ovarian
# LOX IMVI melanoma = system: LOX IMVI melanoma
# SF-295 CNS = system: SF-295 CNS
# KM12 colon = system: KM12 colon
# DU-145 prostate = system: DU-145 prostate
# SR leukemia = system: SR leukemia
# SK-OV-3 ovarian = system: SK-OV-3 ovarian
# SNB-19 CNS = system: SNB-19 CNS
# SF-268 CNS = system: SF-268 CNS
# CAKI-1 renal = system: CAKI-1 renal
# UO-31 renal = system: UO-31 renal
# OVCAR-8 ovarian = system: OVCAR-8 ovarian
# UACC-62 melanoma = system: UACC-62 melanoma
# EKVX NSCLC = system: EKVX NSCLC
# SK-MEL-5 melanoma = system: SK-MEL-5 melanoma
# IGROV1 ovarian = system: IGROV1 ovarian
# HCT-15 colon = system: HCT-15 colon
# A498 renal = system: A498 renal
# MDA-MB-231 breast = system: MDA-MB-231 breast
# M14 melanoma = system: M14 melanoma
# SK-MEL-2 melanoma = system: SK-MEL-2 melanoma
# MDA-MB-435 = system: MDA-MB-435
# RPMI-8226 leukemia = system: RPMI-8226 leukemia
# K-562 leukemia = system: K-562 leukemia
# NCI-H522 lung = system: NCI-H522 lung
# OVCAR-5 ovarian = system: OVCAR-5 ovarian
# SK-MEL-28 melanoma = system: SK-MEL-28 melanoma
# CCRF-CEM leukemia = system: CCRF-CEM leukemia
# NCI-H23 lung = system: NCI-H23 lung
# SNB-75 CNS = system: SNB-75 CNS
# SF-539 CNS = system: SF-539 CNS
# HT29 colon = system: HT29 colon
# HOP-62 NSCLC = system: HOP-62 NSCLC
# MOLT-4 leukemia = system: MOLT-4 leukemia
# 786-0 renal = system: 786-0 renal
# HOP-92 NSCLC = system: HOP-92 NSCLC
# MCF7 breast = system: MCF7 breast
# OVCAR-3 ovarian = system: OVCAR-3 ovarian
# NCI-H226 lung = system: NCI-H226 lung
# BT-549 breast = system: BT-549 breast
# SN12C renal = system: SN12C renal
# U251 CNS = system: U251 CNS
# SW-620 colon = system: SW-620 colon
# MALME-3M melanoma = system: MALME-3M melanoma
# HCT-116 colon = system: HCT-116 colon
compound,measurement,setting,value
Cn1ccc(=O)c2c(O)c3ccccc3c(O)c21,GI50,HCC-2998 colon,20.3 µM
same,TGI,HCC-2998 colon,> 100 µM
same,GI50,ACHN renal,35.3 µM
same,TGI,ACHN renal,> 100 µM
same,GI50,NCI-H460 lung,> 69 µM
same,TGI,NCI-H460 lung,> 100 µM
same,GI50,HL-60(TB) leukemia,> 100 µM
same,TGI,HL-60(TB) leukemia,> 100 µM
same,GI50,TK-10 renal,> 94.9 µM
same,TGI,TK-10 renal,> 100 µM
same,GI50,COLO 205 colon,56.9 µM
same,TGI,COLO 205 colon,> 100 µM
same,GI50,PC-3 prostate,> 26.6 µM
same,TGI,PC-3 prostate,> 100 µM
same,GI50,OVCAR-4 ovarian,> 100 µM
same,TGI,OVCAR-4 ovarian,> 100 µM
same,GI50,UACC-257 melanoma,> 100 µM
same,TGI,UACC-257 melanoma,> 100 µM
same,GI50,A549 NSCLC,> 93.1 µM
same,TGI,A549 NSCLC,> 100 µM
same,GI50,RXF 393 renal,> 100 µM
same,TGI,RXF 393 renal,> 100 µM
same,GI50,NCI/ADR-RES ovarian,> 100 µM
same,TGI,NCI/ADR-RES ovarian,> 100 µM
same,GI50,LOX IMVI melanoma,52.7 µM
same,TGI,LOX IMVI melanoma,> 100 µM
same,GI50,SF-295 CNS,64.3 µM
same,TGI,SF-295 CNS,> 100 µM
same,GI50,KM12 colon,> 70.1 µM
same,TGI,KM12 colon,> 100 µM
same,GI50,DU-145 prostate,> 100 µM
same,TGI,DU-145 prostate,> 100 µM
same,GI50,SR leukemia,44.5 µM
same,TGI,SR leukemia,> 100 µM
same,GI50,SK-OV-3 ovarian,> 94.2 µM
same,TGI,SK-OV-3 ovarian,> 100 µM
same,GI50,SNB-19 CNS,> 40.2 µM
same,TGI,SNB-19 CNS,> 100 µM
same,GI50,SF-268 CNS,> 100 µM
same,TGI,SF-268 CNS,> 100 µM
same,GI50,CAKI-1 renal,57 µM
same,TGI,CAKI-1 renal,> 100 µM
same,GI50,UO-31 renal,> 100 µM
same,TGI,UO-31 renal,> 100 µM
same,GI50,OVCAR-8 ovarian,> 58.6 µM
same,TGI,OVCAR-8 ovarian,> 100 µM
same,GI50,UACC-62 melanoma,> 88.6 µM
same,TGI,UACC-62 melanoma,> 100 µM
same,GI50,EKVX NSCLC,> 100 µM
same,TGI,EKVX NSCLC,> 100 µM
same,GI50,SK-MEL-5 melanoma,18.3 µM
same,TGI,SK-MEL-5 melanoma,> 52.4 µM
same,GI50,IGROV1 ovarian,> 100 µM
same,TGI,IGROV1 ovarian,> 100 µM
same,GI50,HCT-15 colon,> 66.1 µM
same,TGI,HCT-15 colon,> 100 µM
same,GI50,A498 renal,20.2 µM
same,TGI,A498 renal,> 100 µM
same,GI50,MDA-MB-231 breast,99.1 µM
same,TGI,MDA-MB-231 breast,> 100 µM
same,GI50,M14 melanoma,97.5 µM
same,TGI,M14 melanoma,> 100 µM
same,GI50,SK-MEL-2 melanoma,> 100 µM
same,TGI,SK-MEL-2 melanoma,> 100 µM
same,GI50,MDA-MB-435,> 100 µM
same,TGI,MDA-MB-435,> 100 µM
same,GI50,RPMI-8226 leukemia,34.5 µM
same,TGI,RPMI-8226 leukemia,> 100 µM
same,GI50,K-562 leukemia,> 100 µM
same,TGI,K-562 leukemia,> 100 µM
same,GI50,NCI-H522 lung,> 94 µM
same,TGI,NCI-H522 lung,> 100 µM
same,GI50,OVCAR-5 ovarian,> 100 µM
same,TGI,OVCAR-5 ovarian,> 100 µM
same,GI50,SK-MEL-28 melanoma,> 100 µM
same,TGI,SK-MEL-28 melanoma,> 100 µM
same,TGI,CCRF-CEM leukemia,> 100 µM
same,GI50,NCI-H23 lung,> 100 µM
same,TGI,NCI-H23 lung,> 100 µM
same,GI50,SNB-75 CNS,> 100 µM
same,TGI,SNB-75 CNS,> 100 µM
same,GI50,SF-539 CNS,> 82.3 µM
same,TGI,SF-539 CNS,> 100 µM
same,GI50,HT29 colon,99.9 µM
same,TGI,HT29 colon,> 100 µM
same,GI50,HOP-62 NSCLC,64.5 µM
same,TGI,HOP-62 NSCLC,> 100 µM
same,GI50,MOLT-4 leukemia,80.9 µM
same,TGI,MOLT-4 leukemia,> 100 µM
same,GI50,786-0 renal,> 100 µM
same,TGI,786-0 renal,> 100 µM
same,GI50,HOP-92 NSCLC,> 100 µM
same,TGI,HOP-92 NSCLC,> 100 µM
same,GI50,MCF7 breast,> 100 µM
same,TGI,MCF7 breast,> 100 µM
same,GI50,OVCAR-3 ovarian,> 100 µM
same,TGI,OVCAR-3 ovarian,> 100 µM
same,GI50,NCI-H226 lung,> 44.6 µM
same,TGI,NCI-H226 lung,> 100 µM
same,GI50,BT-549 breast,> 100 µM
same,TGI,BT-549 breast,> 100 µM
same,GI50,SN12C renal,78.1 µM
same,TGI,SN12C renal,> 100 µM
same,GI50,U251 CNS,> 100 µM
same,TGI,U251 CNS,> 100 µM
same,GI50,SW-620 colon,59.9 µM
same,TGI,SW-620 colon,> 100 µM
same,GI50,MALME-3M melanoma,> 100 µM
same,TGI,MALME-3M melanoma,> 100 µM
same,GI50,HCT-116 colon,42.2 µM
same,TGI,HCT-116 colon,> 100 µM
